Reference: patent publication US20110098269A1, “Substituted Pyridazinone Derivatives as Histamine-3 (H3) Receptor Ligands” (Cephalon, Inc., priority 2008, published 2011)

Assays:
[1] = target: T1, human H3 receptor (Homo sapiens, UniProt Q9Y5N1); assay: Human H3 radioligand binding ([3H]-N-alpha-methylhistamine, CHO cell membranes); conditions: Human H3 binding constant, class symbols; read-out: hH3 Ki
T1 construct: expressed in transfected cells
Protocol: (§1) Methods: CHO cells stably expressing the human H3 receptor (GenBank: NM_007232) were harvested and cell pellets were frozen (−80° C.). Cell pellets were resuspended in 5 mM Tris-HCl, pH 7.5 with 5 nM EDTA and a cocktail of protease inhibitors (Complete Protease Inhibitor Tablets, Roche Diagnostics). Cells were disrupted using a polytron cell homogenizer and the suspension was centrifuged at 1000×g for 10 minutes at 4° C. The pellet was discarded and the supernatant centrifuged at 40,000×g for 30 min at 4° C. This membrane pellet was washed in membrane buffer containing 50 mM Tris-HCl, pH 7.5 with 0.6 mM EDTA, 5 mM MgCl2 and protease inhibitors, recentrifuged as above and the final pellet resuspended in membrane buffer plus 250 mM sucrose and frozen at −80° C.
(§2) Radioligand Binding. Membranes were resuspended in 50 mM Tris HCl (pH 7.4), 5 mM MgCl2, 0.1% BSA. The membrane suspensions (10 μg protein per well) were incubated in a 96 well microtiter plate with [^3H]-N-alpha-methylhistamine (approximately 1 nM final concentration), test compounds at various concentrations (0.01 nM-30 μM) and scintillation proximity beads (Perkin Elmer, FlashBlueGPCR Scintillating Beads) in a final volume of 80 μl for 4 hours at room temperature, protected from light. Non-specific binding was determined in the presence of 10 μM clobenpropit. Radioligand bound to receptor, and therefore in proximity to the scintillation beads, was measured using a MicroBeta scintillation counter.

[2] = target: T2, rat histamine H3 receptor (Rattus norvegicus, UniProt Q9QYN8); assay: Rat H3 radioligand binding ([3H]-N-alpha-methylhistamine, CHO-A3 cell membranes); conditions: Rat H3 binding constant, class symbols; read-out: rH3 Ki
T2 construct: encoding the entire 445-amino-acid rat histamine H3 receptor; expressed in transfected cells
Description: as §1, with “Cell line development and membrane preparation. The rat” for “Methods: CHO cells stably expressing the human”, “cDNA was PCR amplified from reverse-transcribed RNA pooled from rat thalamus, hypothalamus, striatum and prefrontal cortex with a sequence corresponding to by #338-1672 of Genbank file #NM_053506, encoding the entire 445-amino-acid rat histamine H3 receptor. This was engineered into the pIRES-neo3 mammalian expression vector, which was stably transfected into the CHO-A3 cell line (Euroscreen, Belgium), followed by clonal selection by limiting dilution. Cells” for “(GenBank: NM_007232)”
as §2

T1 sequence (Q9Y5N1 whole entry): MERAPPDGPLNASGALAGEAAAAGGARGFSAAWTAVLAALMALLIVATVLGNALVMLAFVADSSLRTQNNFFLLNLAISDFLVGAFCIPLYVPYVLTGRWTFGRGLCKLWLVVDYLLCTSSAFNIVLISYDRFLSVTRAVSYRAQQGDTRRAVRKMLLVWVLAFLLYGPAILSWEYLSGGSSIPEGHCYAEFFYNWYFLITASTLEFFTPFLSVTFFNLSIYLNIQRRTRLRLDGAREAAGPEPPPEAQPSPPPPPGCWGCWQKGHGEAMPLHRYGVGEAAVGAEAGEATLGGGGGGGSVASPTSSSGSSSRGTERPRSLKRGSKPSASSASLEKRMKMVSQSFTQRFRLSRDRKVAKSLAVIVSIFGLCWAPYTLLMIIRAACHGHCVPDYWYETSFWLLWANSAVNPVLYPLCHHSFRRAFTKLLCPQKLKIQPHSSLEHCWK
T2 sequence (Q9QYN8 whole entry): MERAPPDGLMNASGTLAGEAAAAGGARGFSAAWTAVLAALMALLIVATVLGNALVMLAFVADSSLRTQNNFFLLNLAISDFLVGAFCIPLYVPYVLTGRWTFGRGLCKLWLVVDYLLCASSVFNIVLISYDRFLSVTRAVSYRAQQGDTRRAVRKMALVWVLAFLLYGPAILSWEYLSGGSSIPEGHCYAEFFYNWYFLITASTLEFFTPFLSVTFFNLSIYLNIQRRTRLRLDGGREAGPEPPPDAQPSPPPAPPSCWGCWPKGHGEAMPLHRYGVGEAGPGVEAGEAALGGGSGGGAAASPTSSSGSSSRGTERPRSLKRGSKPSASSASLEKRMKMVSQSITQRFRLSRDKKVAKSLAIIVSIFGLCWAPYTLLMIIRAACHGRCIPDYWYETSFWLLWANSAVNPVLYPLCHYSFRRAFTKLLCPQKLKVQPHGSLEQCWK

SMILES: CC(C)n1nc(-c2ccc(Oc3ccc4c(c3)CCN(C3CCC3)CC4)nc2)ccc1=O [Example 29, 6-[6-(3-Cyclobutyl-2,3,4,5-tetrahydro-1H-benzo[d]azepin-7-yloxy)-pyridin-3-yl]-2-isopropyl-2H-pyridazin-3-one]
- Ki [1]: < 100 nM
- Ki [2]: < 100 nM
- melting point: 70 to 73 °C

SMILES: O=C1NN=C(c2ccc3c(c2)CCN(C2CCC2)CC3)C2CCCC12 (stereo not drawn) [Example 42, 4-(3-Cyclobutyl-2,3,4,5-tetrahydro-1H-benzo[d]azepin-7-yl)-2,4a,5,6,7,7a-hexahydro-cyclopenta[d]pyridazin-1-one]
- Ki [1]: < 100 nM
- Ki [2]: < 100 nM
- melting point: 198 to 201 °C

SMILES: O=C1NN=C(c2ccc3c(c2)CCN(C2CCC2)CC3)C2CCCCC12 (stereo not drawn) [Example 44, 4-(3-Cyclobutyl-2,3,4,5-tetrahydro-1H-benzo[d]azepin-7-yl)-4-a,5,6,7,8,8a-hexahydro-2H-phthalazin-1-one]
- Ki [1]: < 100 nM
- Ki [2]: < 100 nM
- melting point: 223 to 225 °C

SMILES: Cn1nc(-c2ccc(C(=O)N3CCN(C4CCCC4)CC3)cc2)ccc1=O [Example 46, 6-[4-(4-Cyclopentyl-piperazine-1-carbonyl)-phenyl]-2-methyl-2H-pyridazin-3-one]
- Ki [1]: 100 to 1000 nM
- Ki [2]: 100 to 1000 nM
- melting point: 177 to 179 °C

SMILES: CC(C)N1CCN(C(=O)c2ccc(-c3ccc(=O)n(C)n3)cc2)CC1 [Example 47, 6-[4-(4-Isopropyl-piperazine-1-carbonyl)-phenyl]-2-methyl-2H-pyridazin-3-one]
- Ki [1]: 100 to 1000 nM
- Ki [2]: 100 to 1000 nM
- melting point: 131 to 132 °C

SMILES: O=C(c1ccc(-c2ccc(=O)[nH]n2)cc1)N1CCC[C@H]1CN1CCCC1 [Example 50, 6-[4-((S)-2-Pyrrolidin-1-ylmethyl-pyrrolidine-1-carbonyl)-phenyl]-2H-pyridazin-3-one]
- Ki [1]: < 100 nM
- Ki [2]: < 100 nM
- melting point: 62 to 66 °C

SMILES: C[C@@H]1CCCN1CCc1ccc(-c2ccc(=O)[nH]n2)cc1 [Example 51, 6-{4-[2-((R)-2-Methyl-pyrrolidin-1-yl)-ethyl]-phenyl}-2H-pyridazin-3-one]
- Ki [1]: < 100 nM
- Ki [2]: < 100 nM
- melting point: 159 to 161 °C
